Ends that are not written are not given here.
Assays:
[1] = system: urothelial tumor cell line T24; assay: Phage attachment to subconfluent cell monolayer; format: cell-based, human; settings: 1x10^8 T.U. per well
From the text: FIG. 7. Binding of selected phage clones to the human breast cancer cell line MDA-MBA435 (white bars) as well as the urothelial tumor cell lines T24 (light grey bars) and RT4 (dark grey bars). Insertless fd-tet phage were included as controls. Results are given as mean of triplicate wells relative to binding of fd-tet phage, that was set as 1. Input of phage was 1×10^8 T.U. per well. Bound phage were detected after intensive washing by infection with log phase K91 bacteria and plating of serial dilutions.
Binding of selected phage was examined with human adherent primary urothelial cells, the breast cancer cell line MDA-MB-435 and the transitional carcinoma cell lines RT4 and T24. All cells were grown to subconfluency in 48 well plates and free binding sites were blocked with 800 μl 30% FCS/DMEM (blocking medium) for 1 hour at 37° C. The blocking solution was then replaced by 200 μl 10% FCS/DMEM (washing medium) containing 1×10^8 cfu of each phage per well. After incubation for 2 hours at 4° C. to prevent unspecific endocytosis, unbound phage were removed by washing 7 times with 500 μl washing medium. For competition experiments increasing concentrations of the corresponding peptide or a control peptide (CARAC, SEQ ID NO:5) were added during the incubation. Bound phage were determined by infection with 500 μl log phase K91 culture and plating of serial dilutions. […]

porcine bladder mucosa = assay: Dot blot chamber assay after removal of the GAG-layer; format: cell-based; settings: 0.1M HCl for 2 min; relative to untreated mucosa set to 1
Description: FIG. 10. Influence of the GAG-layer on phage binding. In the dot blot chamber assay portions of a porcine bladder mucosa were treated with 0.1M HCl for 2 min prior to remove the GAG-layer. Binding to treated surface is given relative to untreated surface, that was set as 1. Bound phage were detected after intensive washing by infection with log phase K91 bacteria and plating of serial dilutions.
(§1) Removal of the glucosaminoglycan- (GAG-) layer on intact mucosa samples was performed as a dot blot chamber assay. Half of the wells were incubated with 200 μl 0.1M HCl per well for 2 min, intensely rinsed with blocking solution and both parts blocked as before. Results are given relative to fd-tet phage to untreated mucosa, that was set to 1.
(§2) Using the same assay the influence of the glucosaminoglycan (GAG) layer on binding of several phage to intact mucosa was examined. The GAG-layer was removed as described above. Half of the mucosa of human ureter and porcine bladder specimens were treated inside the dot blot chamber with […] for 2 min, extensively washed and the binding assay performed as before.

human ureter mucosa = assay: as above; format: cell-based; settings: human ureter sample
Description: as §1, §2

human bone marrow cells = assay: Binding of single phage clones to bone marrow cells by BRASIL; format: cell-based; settings: single phage clone; negative control fd-tet phage, positive control RGD-4C phage
From the text: Fresh human ribs removed during surgery for access to underlying tumors were sectioned to expose the bone marrow surface. No significant damage to the bone marrow was inflicted to the tissue and the morphology was well preserved during after the procedure. The bone samples were washed (gently) 5 times with ice cold DMEM/0.15% BSA (sterile filtered). The marrow was removed by gently scraping cells from the bone. Cells were washed twice by centrifugation and resuspension in DMEM/BSA to remove debris and fat. Cells were resuspended in DMEM/BSA (about 10^7 cells per ml) and incubated with a phage display library (10^9 TU) prepared as described above. After incubation for 3 hours on ice, the cells were centrifuged through an organic phase consisting of a 9:1 mixture of dibutylphthalate:cyclohexane. Centrifugation occurred for 10 min at 10,000×g. The bottom of the centrifuge tube was snap frozen at −80° C. and phage were recovered by bacterial infection as described above. The selection was repeated for 3 more rounds of BRASIL and 90 clones were sequenced.
A system has been designed to analyze the data resulting from peptide library screenings, adapted from the SAS package. The system is available upon request from the M. D. Anderson Cancer Center. […] The positive control was phage containing an RGD-4C insert, which is known to bind to bone marrow. […]

leptin = settings: cited from earlier work
[2] = target: T1, recombinant human VEGFR-1 (human, UniProt P17948 27-758, limits assumed); assay: phage binding to immobilized receptor, against insertless fd-tet phage (not shown)
T1 construct: Bought; immobilized on microtiter wells (1 ug in 50 ul PBS); also called Flt1
T1 sequence (P17948 27-758 limits assumed): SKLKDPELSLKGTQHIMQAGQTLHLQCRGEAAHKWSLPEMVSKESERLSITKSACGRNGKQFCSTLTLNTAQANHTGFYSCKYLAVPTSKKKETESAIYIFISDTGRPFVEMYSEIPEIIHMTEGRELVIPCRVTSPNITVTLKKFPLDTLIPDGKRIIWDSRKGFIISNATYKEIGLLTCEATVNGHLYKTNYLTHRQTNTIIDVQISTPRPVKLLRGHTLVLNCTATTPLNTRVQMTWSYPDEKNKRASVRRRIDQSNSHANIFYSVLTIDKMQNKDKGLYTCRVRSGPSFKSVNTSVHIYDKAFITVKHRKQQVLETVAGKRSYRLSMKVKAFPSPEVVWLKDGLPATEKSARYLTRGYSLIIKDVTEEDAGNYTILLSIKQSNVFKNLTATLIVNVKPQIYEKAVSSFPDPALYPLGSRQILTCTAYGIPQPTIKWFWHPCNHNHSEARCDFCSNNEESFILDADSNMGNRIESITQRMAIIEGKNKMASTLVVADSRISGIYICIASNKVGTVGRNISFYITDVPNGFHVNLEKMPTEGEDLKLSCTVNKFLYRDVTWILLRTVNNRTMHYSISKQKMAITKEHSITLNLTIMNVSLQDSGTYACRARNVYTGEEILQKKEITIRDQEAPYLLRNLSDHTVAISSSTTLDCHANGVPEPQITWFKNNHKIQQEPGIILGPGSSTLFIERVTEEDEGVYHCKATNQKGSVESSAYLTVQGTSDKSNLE
Description: (§3) Human VEGFR-1, human VEGFR-2, rat NRP-1, and rat NRP-2 (1 μg in 50 μl of PBS) were immobilized on microtiter well plates overnight at 4° C. The wells were washed twice with PBS, blocked with PBS containing 3% BSA for 2 h at room temperature, and then incubated with 10⁹ TU of either […] […] (SEQ ID NO:11) phage, or fd-tet phage in 50 μl of PBS/1.5% BSA. After 1 hr at room temperature, wells were washed nine times with PBS and phage were recovered by bacterial infection. Serial dilutions were plated onto Luria-Bertani (LB) medium supplemented with tetracycline. VEGF₁₆₅, PDGF-BB, or synthetic peptides were used at the indicated concentrations and pre-incubated with the immobilized proteins to evaluate competitive inhibition of phage binding.

recombinant rat NRP-1/Fc = target: T2, recombinant rat NRP-1/Fc (rat; human, UniProt Q9QWJ9 22-854, limits assumed); assay: phage binding to immobilized receptor, recovery by bacterial infection
T2 construct: Bought receptor/Fc chimera; also called rat Neuropilin-1; neuropilin-1; not shown: Fc region of human IgG1
T2 sequence (looked up): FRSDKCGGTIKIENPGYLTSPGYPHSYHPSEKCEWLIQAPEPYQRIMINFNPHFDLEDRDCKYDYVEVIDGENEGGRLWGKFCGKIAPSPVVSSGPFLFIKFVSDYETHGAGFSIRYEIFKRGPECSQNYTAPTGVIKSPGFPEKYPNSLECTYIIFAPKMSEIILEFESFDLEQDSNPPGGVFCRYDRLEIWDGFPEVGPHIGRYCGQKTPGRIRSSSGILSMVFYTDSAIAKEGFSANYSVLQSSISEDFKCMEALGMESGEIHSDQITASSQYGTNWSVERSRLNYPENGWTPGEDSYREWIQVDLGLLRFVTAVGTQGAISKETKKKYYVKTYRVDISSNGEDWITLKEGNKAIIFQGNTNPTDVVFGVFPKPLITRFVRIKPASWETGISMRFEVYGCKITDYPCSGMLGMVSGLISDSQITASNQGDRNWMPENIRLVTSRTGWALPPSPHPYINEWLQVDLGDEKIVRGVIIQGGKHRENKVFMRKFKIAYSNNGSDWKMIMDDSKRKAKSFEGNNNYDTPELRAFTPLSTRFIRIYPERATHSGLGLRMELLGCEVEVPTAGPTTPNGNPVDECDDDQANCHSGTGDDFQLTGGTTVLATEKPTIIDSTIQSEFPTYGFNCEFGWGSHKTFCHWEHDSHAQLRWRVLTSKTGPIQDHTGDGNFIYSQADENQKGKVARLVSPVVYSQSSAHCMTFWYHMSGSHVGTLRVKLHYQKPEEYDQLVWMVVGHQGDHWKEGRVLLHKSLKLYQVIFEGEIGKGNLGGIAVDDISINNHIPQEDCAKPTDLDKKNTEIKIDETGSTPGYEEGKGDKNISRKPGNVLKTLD
Description: as §3

[3] = target: T3, recombinant human VEGFR-2/Fc (human, UniProt P35968 20-764); assay: as above
T3 construct: Bought receptor/Fc chimera; not shown: Fc region of human IgG1
T3 sequence (P35968 20-764 limits assumed): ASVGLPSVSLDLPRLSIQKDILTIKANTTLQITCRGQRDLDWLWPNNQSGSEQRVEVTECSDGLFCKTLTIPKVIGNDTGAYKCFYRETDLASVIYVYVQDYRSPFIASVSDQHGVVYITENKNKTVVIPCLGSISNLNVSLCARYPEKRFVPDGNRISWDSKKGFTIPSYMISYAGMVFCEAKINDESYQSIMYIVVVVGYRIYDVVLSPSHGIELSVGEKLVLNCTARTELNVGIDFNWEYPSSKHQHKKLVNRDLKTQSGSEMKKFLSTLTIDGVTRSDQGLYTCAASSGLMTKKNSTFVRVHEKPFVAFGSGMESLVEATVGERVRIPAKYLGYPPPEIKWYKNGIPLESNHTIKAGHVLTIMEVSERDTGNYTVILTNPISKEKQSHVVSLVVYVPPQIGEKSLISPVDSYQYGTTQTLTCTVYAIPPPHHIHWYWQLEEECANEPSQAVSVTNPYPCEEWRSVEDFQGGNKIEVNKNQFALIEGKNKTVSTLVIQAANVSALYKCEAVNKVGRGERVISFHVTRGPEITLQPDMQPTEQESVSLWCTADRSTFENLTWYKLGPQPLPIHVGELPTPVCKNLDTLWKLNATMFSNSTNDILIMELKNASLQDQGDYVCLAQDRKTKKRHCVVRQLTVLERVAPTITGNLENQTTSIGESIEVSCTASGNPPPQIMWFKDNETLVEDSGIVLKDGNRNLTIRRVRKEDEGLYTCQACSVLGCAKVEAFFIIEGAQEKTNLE
Description: as §3

recombinant rat NRP-2/Fc = target: T4, recombinant rat NRP-2/Fc (rat; human, UniProt O35276 23-858, limits assumed); assay: as above
T4 construct: Bought receptor/Fc chimera; also called neutropilin-2 (NRP-2) receptor; not shown: Fc region of human IgG1
T4 sequence (looked up): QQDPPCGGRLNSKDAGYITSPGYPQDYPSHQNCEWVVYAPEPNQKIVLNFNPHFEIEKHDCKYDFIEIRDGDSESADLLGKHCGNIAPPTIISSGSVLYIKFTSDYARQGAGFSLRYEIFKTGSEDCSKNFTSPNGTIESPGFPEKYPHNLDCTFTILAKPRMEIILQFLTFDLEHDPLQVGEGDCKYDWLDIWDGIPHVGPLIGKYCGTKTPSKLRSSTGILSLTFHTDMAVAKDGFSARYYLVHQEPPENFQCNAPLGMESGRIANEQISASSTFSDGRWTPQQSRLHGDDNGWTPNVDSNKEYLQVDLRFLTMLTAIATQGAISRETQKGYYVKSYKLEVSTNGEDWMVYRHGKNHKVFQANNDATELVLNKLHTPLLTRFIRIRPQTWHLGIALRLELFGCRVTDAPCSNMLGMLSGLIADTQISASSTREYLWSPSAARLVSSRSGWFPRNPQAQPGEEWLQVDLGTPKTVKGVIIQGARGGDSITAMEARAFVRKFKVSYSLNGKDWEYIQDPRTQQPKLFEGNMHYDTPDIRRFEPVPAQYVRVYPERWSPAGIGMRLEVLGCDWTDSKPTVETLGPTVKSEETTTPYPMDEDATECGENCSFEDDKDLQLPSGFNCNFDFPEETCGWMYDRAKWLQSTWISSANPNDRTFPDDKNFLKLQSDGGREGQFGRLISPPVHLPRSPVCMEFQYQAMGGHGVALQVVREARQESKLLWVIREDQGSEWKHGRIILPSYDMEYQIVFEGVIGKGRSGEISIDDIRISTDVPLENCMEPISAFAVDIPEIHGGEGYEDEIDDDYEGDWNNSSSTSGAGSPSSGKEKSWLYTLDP
Description: as §3

[4] = target: BSA (bovine serum albumin) (bovine, UniProt P02769 25-607); assay: phage binding to immobilized protein, recovery by bacterial infection
Sequence of BSA (bovine serum albumin) (P02769 25-607 limits assumed): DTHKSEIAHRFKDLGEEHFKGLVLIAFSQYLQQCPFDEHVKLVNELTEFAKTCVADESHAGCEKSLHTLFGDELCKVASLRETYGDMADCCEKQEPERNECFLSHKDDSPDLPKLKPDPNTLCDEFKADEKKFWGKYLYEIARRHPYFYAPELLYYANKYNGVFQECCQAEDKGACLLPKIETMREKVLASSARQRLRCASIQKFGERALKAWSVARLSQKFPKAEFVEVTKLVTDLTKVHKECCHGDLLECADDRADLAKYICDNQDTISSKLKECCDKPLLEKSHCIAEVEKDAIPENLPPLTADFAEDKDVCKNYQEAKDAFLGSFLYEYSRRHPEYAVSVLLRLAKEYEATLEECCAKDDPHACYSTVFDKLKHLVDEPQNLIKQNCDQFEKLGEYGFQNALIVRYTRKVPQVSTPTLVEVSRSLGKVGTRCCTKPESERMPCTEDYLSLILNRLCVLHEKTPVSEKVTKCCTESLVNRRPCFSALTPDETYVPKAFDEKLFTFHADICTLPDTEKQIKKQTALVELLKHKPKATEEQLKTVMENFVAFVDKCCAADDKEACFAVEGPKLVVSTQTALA

CGQEISGLC
binding to T24 tumor cells [1]: bound

CWGGLSGLC
increase of phage binding after GAG-removal (porcine bladder mucosa): 4.2 fold
increase of phage binding after GAG-removal (human ureter mucosa): 3.4 fold

CLGWRAAAC
binding to human bone marrow cells (human bone marrow cells): over twice as high as the positive control

DLLHLLAFSKSCSLLP
leptin activity in vivo (leptin): block leptin activity

B1: phage clone-19 displaying the peptide CPQPRPLC (SEQ ID NO:6) (peptide)
peptide: CPQPRPLC
modifications: not fully specified (bridges); cysteine pairing not given here; also: displayed on pIII of filamentous phage
notes: Tested as whole filamentous phage (10^9 TU per well), not as free peptide; The peptide is expressed in the pIII protein; also called clone 19 phage; not shown: The phage pIII coat protein that carries the insert, and the residues flanking the insert
fold enrichment of binding over fd-tet phage [2]: > 1000 fold
binding result (recombinant rat NRP-1/Fc): binds
binding result [3]: no binding (tested: 10^9 TU of phage in 50 ul)
binding result (recombinant rat NRP-2/Fc): no binding (tested: 10^9 TU of phage in 50 ul)
binding result [4]: no binding (tested: 10^9 TU of phage in 50 ul)
